# Species on record: Rattus norvegicus
# Assay: Open TG-GATES - Regimen: Single
# Assay type: toxicity, organism-based, Sprague-Dawley
# Design: regimen Single, gender Male, age 6 weeks
# Conditions: in vivo, po, 0 mg/kg, route gavage, dose level Control; for APTT / Bas / Eos / Fbg / Hb / Ht / Lym / MCH / MCHC / MCV / Mono / Neu / PT / Plat / RBC / Ret / WBC: tissue Blood; for KIDNEY_L / KIDNEY_R / KIDNEY_TOTAL: tissue Kidney; for LIVER: tissue Liver; for A/G / ALP / ALT / AST / BUN / CRE / Ca / Cl / DBIL / GLC / IP / K / LDH / Na / PL / RALB / TBIL / TC / TG / TP / gamma-GTP: tissue Plasma
structure (smiles),measurement,setting,value
Clc1c(Cl)c(Cl)c(Cl)c(Cl)c1Cl [PERCHLOROBENZENE],TERMINAL_BW,3 h,219.4 g
same,APTT,3 h,19.3 s
same,Bas,3 h,0.2%
same,Eos,3 h,0.8%
same,Fbg,3 h,218.8 mg/dL
same,Hb,3 h,13.5 g/dL
same,Ht,3 h,38.6%
same,Lym,3 h,75.4%
same,MCH,3 h,21.1 pg
same,MCHC,3 h,34.9%
same,MCV,3 h,60.3 fL
same,Mono,3 h,3.2%
same,Neu,3 h,18.6%
same,PT,3 h,11.9 s
same,Plat,3 h,122 x10_4/uL
same,RBC,3 h,639.6 x10_4/ul
same,Ret,3 h,7.1%
same,WBC,3 h,76.5 x10_2/uL
same,KIDNEY_L,3 h,1 g
same,KIDNEY_R,3 h,1 g
same,KIDNEY_TOTAL,3 h,2 g
same,LIVER,3 h,9.9 g
same,A/G,3 h,1.7
same,ALP,3 h,1008.2 IU/L
same,ALT,3 h,42.8 IU/L
same,AST,3 h,78 IU/L
same,BUN,3 h,11.4 mg/dL
same,CRE,3 h,0.4 mg/dL
same,Ca,3 h,10.9 mg/dL
same,Cl,3 h,103.4 meq/L
same,DBIL,3 h,0.07 mg/dL
same,GLC,3 h,187.2 mg/dL
same,IP,3 h,8.4 mg/dL
same,K,3 h,4 meq/L
same,LDH,3 h,216.2 IU/L
same,Na,3 h,140.6 meq/L
same,PL,3 h,156.8 mg/dL
same,RALB,3 h,3.5 g/dL
same,TBIL,3 h,0.1 mg/dL
same,TC,3 h,76.8 mg/dL
same,TG,3 h,103.4 mg/dL
same,TP,3 h,5.5 g/dL
same,gamma-GTP,3 h,1 IU/L
same,TERMINAL_BW,6 h,219.4 g
same,APTT,6 h,19.5 s
same,Bas,6 h,0.2%
same,Eos,6 h,0.6%
same,Fbg,6 h,230.4 mg/dL
same,Hb,6 h,13.5 g/dL
same,Ht,6 h,38.4%
same,Lym,6 h,79.6%
same,MCH,6 h,21.7 pg
same,MCHC,6 h,35.3%
same,MCV,6 h,61.5 fL
same,Mono,6 h,3.2%
same,Neu,6 h,14.8%
same,PT,6 h,11.7 s
same,Plat,6 h,134.1 x10_4/uL
same,RBC,6 h,624 x10_4/ul
same,Ret,6 h,7.2%
same,WBC,6 h,106.3 x10_2/uL
same,KIDNEY_L,6 h,1 g
same,KIDNEY_R,6 h,1 g
same,KIDNEY_TOTAL,6 h,2 g
same,LIVER,6 h,9.6 g
same,A/G,6 h,1.5
same,ALP,6 h,958.2 IU/L
same,ALT,6 h,32 IU/L
same,AST,6 h,70.6 IU/L
same,BUN,6 h,9.2 mg/dL
same,CRE,6 h,0.4 mg/dL
same,Ca,6 h,10.6 mg/dL
same,Cl,6 h,102.6 meq/L
same,DBIL,6 h,0.06 mg/dL
same,GLC,6 h,192.8 mg/dL
same,IP,6 h,9.4 mg/dL
same,K,6 h,4.2 meq/L
same,LDH,6 h,216.4 IU/L
same,Na,6 h,140.2 meq/L
same,PL,6 h,149.6 mg/dL
same,RALB,6 h,3.3 g/dL
same,TBIL,6 h,0.1 mg/dL
same,TC,6 h,77.6 mg/dL
same,TG,6 h,71.2 mg/dL
same,TP,6 h,5.6 g/dL
same,gamma-GTP,6 h,1.2 IU/L
same,TERMINAL_BW,9 h,215.4 g
same,APTT,9 h,21.3 s
same,Bas,9 h,0.2%
same,Eos,9 h,1%
same,Fbg,9 h,226.6 mg/dL
same,Hb,9 h,13.5 g/dL
same,Ht,9 h,38.6%
same,Lym,9 h,75%
same,MCH,9 h,21.1 pg
same,MCHC,9 h,35%
same,MCV,9 h,60.2 fL
same,Mono,9 h,2.6%
same,Neu,9 h,19.8%
same,PT,9 h,12.3 s
same,Plat,9 h,128.3 x10_4/uL
same,RBC,9 h,641.8 x10_4/ul
same,Ret,9 h,7%
same,WBC,9 h,90.9 x10_2/uL
same,KIDNEY_L,9 h,1 g
same,KIDNEY_R,9 h,0.9 g
same,KIDNEY_TOTAL,9 h,1.9 g
same,LIVER,9 h,8.7 g
same,A/G,9 h,1.6
same,ALP,9 h,849.2 IU/L
same,ALT,9 h,28.4 IU/L
same,AST,9 h,62.4 IU/L
same,BUN,9 h,9.4 mg/dL
same,CRE,9 h,0.3 mg/dL
same,Ca,9 h,10.7 mg/dL
same,Cl,9 h,103.6 meq/L
same,DBIL,9 h,0.068 mg/dL
same,GLC,9 h,198.8 mg/dL
same,IP,9 h,10.6 mg/dL
same,K,9 h,3.8 meq/L
same,LDH,9 h,175.8 IU/L
same,Na,9 h,142 meq/L
same,PL,9 h,129.4 mg/dL
same,RALB,9 h,3.3 g/dL
same,TBIL,9 h,0.1 mg/dL
same,TC,9 h,67.6 mg/dL
same,TG,9 h,46.6 mg/dL
same,TP,9 h,5.5 g/dL
same,gamma-GTP,9 h,1 IU/L
same,TERMINAL_BW,24 h,227.7 g
same,APTT,24 h,18.7 s
same,Bas,24 h,0.6%
same,Eos,24 h,0.8%
same,Fbg,24 h,216.6 mg/dL
same,Hb,24 h,13.7 g/dL
same,Ht,24 h,39.5%
same,Lym,24 h,80.8%
same,MCH,24 h,21.1 pg
same,MCHC,24 h,34.8%
same,MCV,24 h,60.6 fL
same,Mono,24 h,2.2%
same,Neu,24 h,14.8%
same,PT,24 h,11.9 s
same,Plat,24 h,129.9 x10_4/uL
same,RBC,24 h,651.8 x10_4/ul
same,Ret,24 h,6.2%
same,WBC,24 h,90.7 x10_2/uL
same,KIDNEY_L,24 h,1.1 g
same,KIDNEY_R,24 h,1.1 g
same,KIDNEY_TOTAL,24 h,2.1 g
same,LIVER,24 h,10.3 g
same,A/G,24 h,1.6
same,ALP,24 h,981.2 IU/L
same,ALT,24 h,31.2 IU/L
same,AST,24 h,70.6 IU/L
same,BUN,24 h,13.6 mg/dL
same,CRE,24 h,0.4 mg/dL
same,Ca,24 h,10.9 mg/dL
same,Cl,24 h,103 meq/L
same,DBIL,24 h,0.06 mg/dL
same,GLC,24 h,192.6 mg/dL
same,IP,24 h,7.5 mg/dL
same,K,24 h,4 meq/L
same,LDH,24 h,203.2 IU/L
same,Na,24 h,141.2 meq/L
same,PL,24 h,131.4 mg/dL
same,RALB,24 h,3.4 g/dL
same,TBIL,24 h,0.1 mg/dL
same,TC,24 h,70.2 mg/dL
same,TG,24 h,68.2 mg/dL
same,TP,24 h,5.5 g/dL
same,gamma-GTP,24 h,1.2 IU/L

# From ChEMBL document CHEMBL3885861, “Open TG-GATES”
